# The source made the active and inactive calls. The rule behind the calls is not given here.
# Test system: Platelet
# Experiment: Antiplatelet activity in Japanese white rabbit platelet assessed as inhibition of thrombin-induced platelet aggregation at 600 uM preincubated 5 mins before thrombin challenge
# Type: functional, cell-based
# Details: Oryctolagus cuniculus
smiles,measurement,value
COc1cc(/C=C/[C@@H](CO)Cc2ccc(O)c(OC)c2)ccc1O,Activity,Active
